Patent US20250381242A1 (INVAIO SCIENCES, INC., priority 2024, published 2025)
No end group written: not given here.

What was measured:
[1] = system: A. tumefaciens; details: 24 h, 10 μM
[2] = system: E. amylovora; details: 24 h, 10 μM
[3] = system: L. crescens; details: 10 μM
[4] = system: X. citri; experiment: Bacterial growth inhibition by OD600 absorbance, X. citri; assay type: cell-based, X. citri subsp. citri (ATCC 49118); details: peptide 10 μM, 24 hours at 30° C., OD 600 nm
[5] = system: E. coli; experiment: Bacterial growth inhibition by OD600 absorbance, E. coli; assay type: cell-based, E. coli (DH5-alpha); details: peptide 10 μM, 24 hours at 37° C., OD 600 nm
How it was run: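 Peptides added to bacterial culture at 10 μM final (0.1% DMSO); X. citri grown at 30° C., E. coli at 37° C., for 24 h. OD600 read before and after growth; percent inhibition derived relative to 0.1% DMSO negative and oxytetracycline/streptomycin positive controls.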

Sequence | growth inhibition, A. tumefaciens [1] | growth inhibition, E. amylovora [2] | growth inhibition, L. crescens [3] | growth inhibition, X. citri [4] | growth inhibition, E. coli [5]
IRIRIRPIRIRIRP [compound 98] | 99.18% | 99.58% | <90% | <90% | 99.61%
GLLSNVAGLLKQFAKGGVNAVLNPK [compound 45] | <90% | 99.64% | <90% | 100.00% | <90%
GKLTKDKLKRGAKKALNVASKVAPIVAAGASIAR [compound 10] | 98.37% | 100.00% | <90% | 100.00% | <90%
GILKTIKSIASKVANTVQKLKRKAKNAVA [compound 20] | 100.00% | 100.00% | <90% | 100.00% | 99.03%
WKKIWKKIWKPGIKKWIKKWIK [compound 24] | 97.97% | 98.38% | <90% | 99.69% | 100.00%
GIKIAKKAITIAKKIAKIYW [compound 69] | 100.00% | 100.00% | <90% | 100.00% | 93.16%
WKLKWKLKWKLK [compound 104] | 100.00% | 99.91% | <90% | <90% | <90%
GMWKKILGKLIR [compound 134] | 100.00% | 100.00% | <90% | <90% | <90%
WFGKLYRGITSVVKKVKGLLSG [compound 55] | 100.00% | 100.00% | <90% | 100.00% | 100.00%
RWKIFKKPFKISIHL [compound 90] | 100.00% | 100.00% | <90% | <90% | 98.69%
INWKKIASIGKEVLKAL [compound 94] | 100.00% | 100.00% | <90% | <90% | <90%
KFLKKAKKFGKAFVKIL [compound 83] | 99.31% | 100.00% | <90% | <90% | <90%
KWYKKWYKKWYKKWYK [compound 54] | 99.49% | 100.00% | <90% | 100.00% | 100.00%
